Source: US8901116B2, “Method for treating pain, anxiety or depression using carbamoyloxy alkanoyl piperazine compound” (SK Biopharmaceuticals Co., Ltd., priority 2007, dated 2014)

Columns and labels:
Type in all cases: in vivo
male ICR mouse [1] = experiment: Hot plate test in mouse; settings: po, p.o, 1 hour after dosing, hot plate 55° C., read-out: Hot Plate Test Increase in latency of avoidance response
Outline: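 Male ICR mice (25–30 g) dosed orally at 30 mg/kg and placed on a 55° C. hot plate 1 h later. Latency to forefoot or hind-leg avoidance (flinching, licking, jumping) recorded; effect expressed as % increase in latency over vehicle group.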

male ICR mouse [2] = experiment: Acetic acid-induced writhing test in mouse; settings: po, p.o, acetic acid i.p. 1 hour after dosing, writhing counted for 10 minutes, read-out: Writhing Test Suppression of pain response
Outline: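 Test material given orally at 10 mg/kg to male mice (30–35 g); 1 h later 0.8% acetic acid injected i.p. Writhes counted over 10 min immediately afterwards; analgesia expressed as percent suppression of writhing versus vehicle group.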

male ICR mouse [3] = experiment: Elevated plus maze (EPM) test in mouse; settings: po, p.o, 1 hour after dosing, 5 minutes observation, read-out: Elevated Plus Maze Change index in Open-Arm Time
Outline: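 Male ICR mice (20–25 g) received test material orally at 10 mg/kg, and open-arm time on the maze was recorded over 5 min starting 1 h after dosing. Value is the change index in open-arm time: (treated − vehicle)/vehicle × 100%.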

male ICR mouse [4] = experiment: Head twitch potentiation induced by 5-HTP (5-HTP potentiation test) in mouse; settings: po, 0.5 h, p.o, 5-HTP 80 mg/kg + Carbidopa 25 mg/kg i.p. 30 minutes after dosing, head twitches counted for 2 minutes, negative = 5-HT2A antagonist, read-out: 5-HTP Potentiation Increase rate in Head Twitch No.
Outline: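 Male ICR mice (20-25 g) dosed orally at 30 mg/kg; 30 min later given 5-HTP (80 mg/kg) plus carbidopa (25 mg/kg) i.p. Head twitches counted for 2 min starting 30 min after i.p. dosing; effect expressed as % increase in twitch number versus vehicle group.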

SMILES	change in vivo at 30 mg/kg (male ICR mouse [1])	inhibition in vivo at 10 mg/kg (male ICR mouse [2])	change in vivo at 10 mg/kg (male ICR mouse [3])	change in vivo at 30 mg/kg (male ICR mouse [4])
NC(=O)O[C@@H](CC(=O)N1CCN(c2ccc(F)c(F)c2)CC1)c1ccccc1 [Example 64, (S)-carbamic acid 3-[4-(3,4-difluoro-phenyl)-piperazin-1-yl]-3-oxo-1-phenyl-propyl ester]	33%	41.1%	125%	134%
NC(=O)O[C@@H](CC(=O)N1CCN(c2ccc(Cl)c(Cl)c2)CC1)c1ccccc1 [Example 66, (S)-carbamic acid 3-[4-(3,4-dichloro-phenyl)-piperazin-1-yl]-3-oxo-1-phenyl-propyl ester]	27.8%	62.5%	50.6%	-39.5%
NC(=O)O[C@H](CC(=O)N1CCN(c2ccc(F)c(F)c2)CC1)c1ccccc1 [Example 67, (R)-carbamic acid 3-[4-(3,4-difluoro-phenyl)-piperazin-1-yl]-3-oxo-1-phenyl-propyl ester]	34.3%	45.1%	34.3%	58.8%
NC(=O)O[C@H](CC(=O)N1CCN(c2ccc(Cl)c(Cl)c2)CC1)c1ccccc1 [Example 68, (R)-carbamic acid 3-[4-(3,4-dichloro-phenyl)-piperazin-1-yl]-3-oxo-1-phenyl-propyl ester]	15.7%	51%	1.5%	-28.6%
COc1ccc(N2CCN(C(=O)C[C@@H](OC(N)=O)c3ccccc3)CC2)cc1 [Example 70, (R)-carbamic acid 3-[4-(4-methoxy-phenyl)-piperazin-1-yl]-3-oxo-1-phenyl-propyl ester]	30.6%	59.8%	109%	87.9%
COc1ccc(N2CCN(C(=O)C[C@@H](OC(N)=O)c3ccccc3)CC2)cc1OC [Example 71, (R)-carbamic acid 3-[4-(3,4-dimethoxy-phenyl)-piperazin-1-yl]-3-oxo-1-phenyl-propyl ester]	55.8%	46.5%	125%	127%
O=C1Nc2ccccc2C(CC(=O)N2CCN(c3ccccc3)CC2)O1 (centres unmarked) [Example 77, 4-[2-oxo-2-(4-phenyl-piperazin-1-yl)-ethyl]-1,4-dihydro-benzo[d][1,3]oxazin-2-one]	30.4%	26.4%	4.9%	25%
NC(=O)O[C@@H](CC(=O)N1CCN(c2ccc(F)cc2)CC1)c1ccccc1 [Example 79, (S)-carbamic acid 3-[4-(4-fluoro)-phenylpiperazin-1-yl]-3-oxo-1-phenyl-propyl ester]	29.3%	40.7%	-5.1%	-30%
Cc1ccc(N2CCN(C(=O)C[C@@H](OC(N)=O)c3ccccc3)CC2)cc1 [Example 80, (R)-carbamic acid 3-[4-(4-methyl)-phenylpiperazin-1-yl]-3-oxo-1-phenyl-propyl ester]	16.7%	36.3%	41.2%	12.5%
Cc1ccc(N2CCN(C(=O)C[C@H](OC(N)=O)c3ccccc3)CC2)cc1 [Example 81, (S)-carbamic acid 3-[4-(4-methyl)-phenylpiperazin-1-yl]-3-oxo-1-phenyl-propyl ester]	9.2%	20.1%	23%	-21.4%
NC(=O)O[C@H](CC(=O)N1CCN(c2ccc(F)cc2F)CC1)c1ccccc1 [Example 82, (R)-carbamic acid 3-[4-(2,4-difluoro)-phenylpiperazin-1-yl]-3-oxo-1-phenyl-propyl ester]	65.7%	34.5%	62.6%	-20%
NC(=O)O[C@H](CC(=O)N1CCN(c2ccc(O)cc2)CC1)c1ccccc1 [Example 83, (R)-carbamic acid 3-[4-(4-hydroxy)-phenylpiperazin-1-yl]-3-oxo-1-phenyl-propyl ester]	89.3%	44.5%	52.7%	40.9%
NC(=O)O[C@@H](CC(=O)N1CCN(c2ccc(O)cc2)CC1)c1ccccc1 [Example 84, (S)-carbamic acid 3-[4-(4-hydroxy)-phenylpiperazin-1-yl]-3-oxo-1-phenyl-propyl ester]	13.5%	32%	65.6%	-37.5%
NC(=O)O[C@@H](CC(=O)N1CCN(c2ccc(Cl)cc2)CC1)c1ccccc1 [Example 85, (S)-carbamic acid 3-[4-(4-chloro)-phenylpiperazin-1-yl]-3-oxo-1-phenyl-propyl ester]	25.3%	52%	37%	222%
